Test results as given in ChEMBL document CHEMBL5325484, “Quinolinetrione-tacrine hybrids as multi-target-directed ligands against Alzheimer's disease” (Bioorg Med Chem, 2023).

Tests used:
[1] = test system: HepG2; experiment: Cytotoxicity against human HepG2 cells assessed as reduction in cell viability at 100 uM incubated for 24 hrs by MTT assay; type: toxicity, cell-based; settings: hepg2, 24 h
[2] = target: Cholinesterase (Homo sapiens, UniProt P06276); experiment: Inhibition of human serum BChE using butyrylthiocholine iodide as substrate preincubated with compound for 20 mins followed by substrate addition and measured after 240 sec by spectrophotometer based Ellman's method; type: cell-free
Cholinesterase, sequence (P06276 whole entry): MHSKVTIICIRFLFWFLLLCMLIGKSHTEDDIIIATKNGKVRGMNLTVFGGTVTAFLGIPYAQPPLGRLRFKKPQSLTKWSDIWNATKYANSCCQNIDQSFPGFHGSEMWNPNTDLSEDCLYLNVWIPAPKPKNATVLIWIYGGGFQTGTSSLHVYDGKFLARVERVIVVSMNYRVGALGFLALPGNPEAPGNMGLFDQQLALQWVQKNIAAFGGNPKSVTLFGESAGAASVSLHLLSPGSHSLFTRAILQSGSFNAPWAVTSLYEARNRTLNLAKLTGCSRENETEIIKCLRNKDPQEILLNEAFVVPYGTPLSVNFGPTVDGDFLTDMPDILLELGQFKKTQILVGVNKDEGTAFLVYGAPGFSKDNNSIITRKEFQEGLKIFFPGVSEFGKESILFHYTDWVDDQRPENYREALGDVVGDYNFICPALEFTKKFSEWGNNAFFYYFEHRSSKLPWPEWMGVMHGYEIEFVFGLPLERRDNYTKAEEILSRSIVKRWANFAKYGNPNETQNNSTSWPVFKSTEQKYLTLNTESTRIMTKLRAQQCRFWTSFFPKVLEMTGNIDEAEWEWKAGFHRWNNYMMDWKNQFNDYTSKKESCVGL

[3] = test system: HepG2; experiment: Cytotoxicity against human HepG2 cells assessed as reduction in cell viability at 1 uM incubated for 24 hrs by MTT assay; type: toxicity, cell-based; settings: hepg2, 24 h
[4] = test system: HepG2; experiment: Cytotoxicity against human HepG2 cells assessed as reduction in cell viability at 10 uM incubated for 24 hrs by MTT assay relative to control; type: toxicity, cell-based; settings: hepg2, 24 h
[5] = target: Acetylcholinesterase (Homo sapiens, UniProt P22303); experiment: Inhibition of recombinant human AChE using acetylthiocholine iodide as substrate preincubated with compound for 20 mins followed by substrate addition and measured after 240 sec by spectrophotometer based Ellman's method
Acetylcholinesterase, sequence (P22303 whole entry): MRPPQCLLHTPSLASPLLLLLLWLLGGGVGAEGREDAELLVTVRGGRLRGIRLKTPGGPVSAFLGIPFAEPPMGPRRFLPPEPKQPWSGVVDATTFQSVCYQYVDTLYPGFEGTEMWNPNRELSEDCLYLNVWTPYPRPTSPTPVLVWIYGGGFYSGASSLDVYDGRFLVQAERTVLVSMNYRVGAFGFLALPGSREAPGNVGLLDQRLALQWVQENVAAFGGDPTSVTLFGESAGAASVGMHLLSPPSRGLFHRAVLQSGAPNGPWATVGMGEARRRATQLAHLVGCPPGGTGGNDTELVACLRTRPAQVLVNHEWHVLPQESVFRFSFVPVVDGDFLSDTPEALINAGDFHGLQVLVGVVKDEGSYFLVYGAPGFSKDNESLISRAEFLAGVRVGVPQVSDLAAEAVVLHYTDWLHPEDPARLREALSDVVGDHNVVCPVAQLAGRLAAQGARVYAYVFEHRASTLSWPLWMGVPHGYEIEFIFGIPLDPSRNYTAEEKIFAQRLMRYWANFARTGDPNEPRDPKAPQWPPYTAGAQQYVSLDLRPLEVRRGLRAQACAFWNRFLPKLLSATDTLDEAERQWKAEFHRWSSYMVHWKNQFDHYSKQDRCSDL

| Structure (SMILES) | Activity [1] | IC50 [2] | Activity [3] | Activity [4] | IC50 [5] |
| --- | --- | --- | --- | --- | --- |
| Cc1cc(=O)[nH]c2c1C(=O)C(NCCCCNc1c3c(nc4ccccc14)CCCC3)=CC2=O | Toxic | 109 nM | Non-Toxic | 14% | 58.3 nM |
| Cc1cc(=O)[nH]c2c1C(=O)C(NCCCNc1c3c(nc4cc(Cl)ccc14)CCCC3)=CC2=O | Toxic | 1340 nM | Non-Toxic | 50% | 11.1 nM |
| Cc1cc(=O)[nH]c2c1C(=O)C(NCCNc1c3c(nc4cc(Cl)ccc14)CCCC3)=CC2=O | Toxic | 2100 nM | Non-Toxic | 50% | 121 nM |
| Cc1cc(=O)[nH]c2c1C(=O)C(NCCCCNc1c3c(nc4cc(Cl)ccc14)CCCC3)=CC2=O | Toxic | 2830 nM | Non-Toxic | 50% | 5.58 nM |
| Cc1cc(=O)[nH]c2c1C(=O)C(NCCNc1c3c(nc4ccccc14)CCCC3)=CC2=O | Toxic | 182 nM | Non-Toxic | 12% | 667 nM |
